Test systems include K-562 leukemia; IGROV1 ovarian; CCRF-CEM leukemia; SR leukemia; OVCAR-5 ovarian; HCT-116 colon; MALME-3M melanoma; HOP-62 NSCLC; UO-31 renal; MCF7 breast.
Holding throughout (assay): NCI-60 cell line screen, 48 h

Molecules are shown by their SMILES.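 Test compounds were applied to cells in 96-well plates for 48 hours at 5 doses. Here, GI50 denotes the concentration required for 50% inhibition of growth. TGI is the concentration that stops growth completely.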

Take `Cc1ccc(S(=O)(=O)OCCOCCOCCOCCOCCOS(=O)(=O)c2ccc(C)cc2)cc1`: the TGI is greater than 100 µM with K-562 leukemia; greater than 100 µM with IGROV1 ovarian; 66.4 µM with CCRF-CEM leukemia; 90.9 µM with SR leukemia; greater than 100 µM in the experiment on OVCAR-5 ovarian; greater than 100 µM in the experiment with HCT-116 colon. In addition, the TGI in the experiment on MALME-3M melanoma, in the experiment with HOP-62 NSCLC and in the experiment with UO-31 renal was greater than 100 µM each time.
For the compound `COc1cc(O)c2c(c1)C(=O)C1=C(C2=O)C(O)C[C@@](C)(O)C1` (stereo partly specified), the TGI with K-562 leukemia is 2.46 µM; in the experiment on IGROV1 ovarian, 3.71 µM; in the experiment with CCRF-CEM leukemia, greater than 24.9 µM; in the experiment with SR leukemia, 6.14 µM; with OVCAR-5 ovarian, 22.2 µM; with HCT-116 colon, 2.22 µM. The TGI with MALME-3M melanoma was determined as 2.11 µM; in the experiment on HOP-62 NSCLC, 21.2 µM; in the experiment on UO-31 renal it was 6.6 µM.
With `CCOC(=O)CN(c1ccccc1)c1nc(=[N+](C)C)ss1`, the TGI is greater than 100 µM with K-562 leukemia; 36.5 µM with CCRF-CEM leukemia; 41.9 µM with SR leukemia; greater than 100 µM in the experiment on HCT-116 colon; 70.4 µM in the experiment on MALME-3M melanoma; greater than 100 µM in the experiment on HOP-62 NSCLC. Besides, the TGI with UO-31 renal is 54.5 µM.
With `CCCCCCCCCCOC(=O)NCCC`, the TGI in the experiment on K-562 leukemia is greater than 100 µM; in the experiment on IGROV1 ovarian, greater than 100 µM; in the experiment with CCRF-CEM leukemia, 48.4 µM; in the experiment on OVCAR-5 ovarian, 93.9 µM; with MALME-3M melanoma, 54.8 µM; with UO-31 renal it was 50.6 µM.
Take `C=CC(=O)Nc1cccc(Oc2nc(Nc3ccc(N4CCN(C)CC4)cc3OC)ncc2Cl)c1`: the GI50 in the experiment with IGROV1 ovarian was 1.29 µM; in the experiment with CCRF-CEM leukemia, 3.17 µM; in the experiment with OVCAR-5 ovarian, 2.29 µM; with HCT-116 colon, 1.64 µM; with HOP-62 NSCLC, 3.01 µM; in the experiment with UO-31 renal, 1.03 µM. In addition, the TGI in the experiment on IGROV1 ovarian was 3.56 µM; with CCRF-CEM leukemia it was greater than 26.3 µM; in the experiment on OVCAR-5 ovarian it was 13 µM; in the experiment on HCT-116 colon, 3.06 µM; in the experiment with HOP-62 NSCLC it was 12.1 µM; with UO-31 renal, 2.32 µM.
Regarding `O=C(O)CN(c1ccc(F)cc1)S(=O)(=O)c1ccccc1`, the TGI in the experiment with K-562 leukemia, in the experiment with IGROV1 ovarian, with CCRF-CEM leukemia, with OVCAR-5 ovarian, in the experiment with MALME-3M melanoma and with UO-31 renal was greater than 100 µM throughout.
For the compound `Cn1c(-c2c(N)n(Cc3ccc(F)cc3)c3nc(C#N)c(C#N)nc23)nc2ccccc21`, the GI50 with K-562 leukemia is 5.19 µM; in the experiment with SR leukemia, 1.01 µM; with OVCAR-5 ovarian, 8.55 µM; with MCF7 breast it was 2.19 µM; in the experiment with HOP-62 NSCLC, 2.32 µM; in the experiment with UO-31 renal, 2.51 µM. Further, the TGI in the experiment with K-562 leukemia was greater than 50 µM; in the experiment with SR leukemia it was greater than 50 µM; with OVCAR-5 ovarian, greater than 50 µM; in the experiment on MCF7 breast it was greater than 50 µM; in the experiment on HOP-62 NSCLC, 22.5 µM; in the experiment with UO-31 renal it was greater than 50 µM.
With `C=C1C(=O)O[C@H]2[C@H]1CC/C(CNC(=O)/C=C/c1ccccc1F)=C\CC[C@@]1(C)O[C@@H]21`, the GI50 is 0.577 µM with K-562 leukemia; 1.69 µM in the experiment with IGROV1 ovarian; 0.416 µM in the experiment with CCRF-CEM leukemia; 0.482 µM in the experiment on SR leukemia; 1.9 µM in the experiment with OVCAR-5 ovarian; 0.482 µM with HCT-116 colon. Further, the GI50 with MALME-3M melanoma was 1.54 µM; in the experiment with HOP-62 NSCLC, 3.89 µM; with UO-31 renal it was 1.34 µM. Further, the TGI in the experiment with K-562 leukemia worked out at 7.45 µM; in the experiment on IGROV1 ovarian, 4.65 µM; in the experiment on CCRF-CEM leukemia, 2.92 µM; in the experiment on SR leukemia, 6.88 µM; with OVCAR-5 ovarian, 5.15 µM; in the experiment with HCT-116 colon, 1.69 µM. Also, the results for the TGI in the experiment on MALME-3M melanoma, in the experiment on HOP-62 NSCLC and in the experiment on UO-31 renal were 3.52 µM, 16.6 µM and 2.91 µM, respectively.
For `C=C1C(=O)C2=CC1CCC(=O)C1(C)CCC(OC(C)=O)C(C)(C)C1CC2O` (stereo unspecified), the TGI in the experiment with IGROV1 ovarian was 14.1 µM; with OVCAR-5 ovarian, 18.9 µM; with HCT-116 colon it was greater than 21.2 µM; with MALME-3M melanoma, 18.1 µM; in the experiment on MCF7 breast, 3.84 µM; in the experiment with HOP-62 NSCLC it was 22.8 µM. The same compound showed a TGI in the experiment on UO-31 renal of 5.38 µM.
Consider `COc1cc2c(c(OC)c1OC)-c1c(c3ccc([N+](=O)[O-])cc3c(=O)n1CCCN)C2=O`, for which the GI50 in the experiment on K-562 leukemia is 0.478 µM; in the experiment with IGROV1 ovarian, 8.7 µM; in the experiment with CCRF-CEM leukemia it was 0.826 µM; with OVCAR-5 ovarian, 1.77 µM; with HCT-116 colon it was 0.828 µM; in the experiment on MALME-3M melanoma, 0.952 µM. For the same compound, the results for the GI50 with MCF7 breast, with HOP-62 NSCLC and in the experiment on UO-31 renal were 14.2 µM, 0.937 µM and 0.892 µM, respectively. Moreover, the TGI in the experiment on K-562 leukemia amounted to 1.33 µM; with IGROV1 ovarian, 17.1 µM; in the experiment with CCRF-CEM leukemia it was 2.12 µM; in the experiment on OVCAR-5 ovarian, 6.35 µM; in the experiment with HCT-116 colon, 1.53 µM; in the experiment with MALME-3M melanoma, 1.92 µM. The values for the TGI in the experiment with MCF7 breast, in the experiment with HOP-62 NSCLC and with UO-31 renal were greater than 50 µM, 1.73 µM and 1.68 µM, respectively.
As to `O=C(c1ccccc1)c1nc2ccc(C(F)(F)F)cc2nc1N1CCN(c2ccccc2)CC1`, the GI50 in the experiment with IGROV1 ovarian was 43.9 µM; in the experiment with CCRF-CEM leukemia it was 21 µM; with OVCAR-5 ovarian, 70.5 µM; with HCT-116 colon, 24.7 µM; in the experiment on MALME-3M melanoma it was 48.2 µM; in the experiment with MCF7 breast it was 48.2 µM. For the same compound, the GI50 is 60.9 µM with HOP-62 NSCLC and 31.7 µM in the experiment on UO-31 renal. Also, the TGI with IGROV1 ovarian was greater than 100 µM; in the experiment with CCRF-CEM leukemia, greater than 100 µM; in the experiment with OVCAR-5 ovarian, greater than 100 µM; in the experiment on HCT-116 colon, 53.7 µM; with MALME-3M melanoma it was greater than 100 µM; in the experiment on MCF7 breast it was greater than 100 µM. Further, the TGI with HOP-62 NSCLC and in the experiment with UO-31 renal was greater than 100 µM in each case.
`CC[PH+](CC)CC.CC[PH+](CC)CC.[Au]`: the GI50 is 5.98 µM with K-562 leukemia; 14.5 µM with IGROV1 ovarian; 2.04 µM in the experiment on CCRF-CEM leukemia; 25.8 µM in the experiment with OVCAR-5 ovarian; 16 µM with HCT-116 colon; 11.4 µM with MALME-3M melanoma. For the same compound, the GI50 in the experiment on HOP-62 NSCLC was 22 µM; in the experiment with UO-31 renal it was 21.4 µM. The TGI was 41.1 µM in the experiment on K-562 leukemia; 34.3 µM with IGROV1 ovarian; 11.9 µM in the experiment with CCRF-CEM leukemia; 41.5 µM in the experiment on OVCAR-5 ovarian; 32.9 µM in the experiment with HCT-116 colon; 24.7 µM in the experiment with MALME-3M melanoma. For the same compound, the results for the TGI in the experiment on HOP-62 NSCLC and in the experiment on UO-31 renal were 36.6 µM and 35.8 µM, respectively.

The values are drawn from PubChem BioAssay (NCI).
